US8637510B2, “Morpholinothiazoles as alpha 7 positive allosteric modulators” (Janssen Pharmaceutica NV, priority 2009, dated 2014)

Columns and labels:
[1] = target: T1, human alpha 7-wt nAChR (Homo sapiens, UniProt P36544); assay: Ca2+ flux imaging (FDSS) (Protocol B); assay type: cell-based; settings: for Emax: efficacy of 100 μM choline defined as 100% in the absence of a PAM, read-out: a7-PAM-G_[33]_Eff_Curve_FI % Efficacy; for EC50: potentiation of 100 μM choline, compounds 0.01 μM to 30 μM, read-out: a7-PAM-G_[33]_pEC50 pEC50 (converted)
T1 construct: expressed in transfected cells
T1 sequence (P36544 23-502): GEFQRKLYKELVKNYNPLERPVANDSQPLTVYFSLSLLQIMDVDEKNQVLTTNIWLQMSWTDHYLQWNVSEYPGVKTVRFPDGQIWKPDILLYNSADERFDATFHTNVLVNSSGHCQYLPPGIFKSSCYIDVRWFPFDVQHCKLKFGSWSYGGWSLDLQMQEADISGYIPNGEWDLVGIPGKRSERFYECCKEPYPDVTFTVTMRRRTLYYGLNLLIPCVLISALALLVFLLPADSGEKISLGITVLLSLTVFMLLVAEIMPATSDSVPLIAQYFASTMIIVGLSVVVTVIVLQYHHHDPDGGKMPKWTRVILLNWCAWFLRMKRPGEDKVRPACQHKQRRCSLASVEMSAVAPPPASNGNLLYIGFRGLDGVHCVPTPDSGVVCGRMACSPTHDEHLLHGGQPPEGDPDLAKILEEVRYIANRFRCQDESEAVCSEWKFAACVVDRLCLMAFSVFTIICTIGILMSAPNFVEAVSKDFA
Summary of the method: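 PAM activity was measured as FDSS calcium fluorescence in α7-wt nAChR cells loaded with 2 μM Fluo-4AM, with compounds at 0.01–30 μM added alongside or 10 min ahead of sub-maximal 100 μM choline. Peak responses were normalised to choline-only efficacy, and EC50 was taken at half-maximal effect.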

[2] = tested on: DBA/2 mice; assay: Auditory evoked potential test in DBA/2 mice; assay type: in vivo, mouse; settings: s.c.; male DBA/2 mice; TC ratio vs baseline, p<0.05
Source text: A number of compounds according to the invention have proven active in the auditory evoked potential test. […] The DBA/2 mouse has proven to be a useful model of schizophrenia-like sensory processing deficits. Human studies of nicotine effects on sensory processing predicted the results in the DBA/2 mouse and studies with the selective alpha 7 agonist GTS-21 in DBA/2 mice, predicted the effects in humans. This model of sensory gating ability therefore has high translational relevance.
The vehicle used was 20% hydroxypropyl-β-cyclodextrin (HP-β-CD) in water, acidified slightly with a few drops of tartaric acid. Both drug solution and vehicle were administered s.c. in a volume of 4 ml/kg. […]
The ratio of the P20-N40 amplitude of response to the second (test) stimulus and the first (conditioning) stimulus provides a measure of sensory inhibition; the ratio of the test to the conditioning amplitude (TC ratio) is 0.5 or less for most rodent strains and normal humans. […] The maximum negativity between 20 and 60 ms after the two stimuli was selected as the N40 wave and measured relative to the preceding positivity, the P20 wave. The amplitude from the P20 to the N40 wave was determined for both the conditioning and the test response. […]
All data were analyzed by multivariate analysis of variance with repeated measures. […]

SMILES	Emax [1] [%]	EC50 [1] [nM]	lowest active dose [2] [mg/kg]	melting point [°C]
Cc1cc(-c2sc(N3C[C@@H](C)O[C@@H](C)C3)nc2CNC(=O)CC2CC2)cc(C)n1 [Compound 1, N-[[2-[(2R,6S)-2,6-dimethyl-4-morpholinyl]-5-(2,6-dimethyl-4-pyridinyl)-4-thiazolyl]methyl]-cyclopropaneacetamide]	796	186	0.63	174
Cc1cc(-c2sc(N3C[C@@H](C)O[C@@H](C)C3)nc2CNC(=O)c2conc2C)cc(C)n1 [Compound 18, N-[[2-[(2R,6S)-2,6-dimethyl-4-morpholinyl]-5-(2,6-dimethyl-4-pyridinyl)-4-thiazolyl]methyl]-3-methyl-4-isoxazolecarboxamide]	815	380	0.04	141
